Type in all cases: functional
In test [1] the test system is Escherichia coli. Briefly: Antibacterial activity against Escherichia coli infected in mouse.
Test [2] has as its system Escherichia coli. The test is described as follows: Antibacterial activity against Escherichia coli.
Test [3] deals with Pseudomonas aeruginosa. The test is described as follows: Antibacterial activity against Pseudomonas aeruginosa.
Another test deals with Enterococcus faecalis. The test is described as follows: Antibacterial activity against Enterococcus faecalis.
Test [4] relates to Staphylococcus aureus. The test is described as follows: Antibacterial activity against Staphylococcus aureus ATCC 25923.
In test [5] the test system is Staphylococcus aureus. Briefly: Antibacterial activity against Staphylococcus aureus ATCC 29213.
In test [6] the test system is Staphylococcus aureus. The test is described as follows: Antibacterial activity against methicillin-resistant Staphylococcus aureus N315.
In test [7] the test system is Pseudomonas aeruginosa. The test is described as follows: Antibacterial activity against Pseudomonas aeruginosa ATCC 27853.
For another test, the system named is Acinetobacter baumannii. Briefly: Antibacterial activity against Acinetobacter baumannii.
Test [8] relates to Escherichia coli. Briefly: Antibacterial activity against Escherichia coli ATCC 25922.
Another test concerns Klebsiella pneumoniae. Briefly: Antibacterial activity against Klebsiella pneumoniae.
For test [9], the system named is Staphylococcus aureus. The test is described as follows: Antibacterial activity against Staphylococcus aureus ATCC 25923 after 24 hrs by NCCLS method. As to conditions: ATCC 25923, 24 h.
The next test has as its system Bacillus subtilis. The test is described as follows: Antibacterial activity against Bacillus subtilis ATCC 530 after 24 hrs by NCCLS method. As to conditions: ATCC 530, 24 h.
In test [10] the test system is Escherichia coli. Briefly: Antibacterial activity against Escherichia coli ATCC 25922 after 24 hrs by NCCLS method. As to conditions: ATCC 25922, 24 h.
In test [11] the test system is Pseudomonas aeruginosa. The test is described as follows: Antibacterial activity against Pseudomonas aeruginosa ATCC 27853 after 24 hrs by NCCLS method. As to conditions: ATCC 27853, 24 h.

Among the data in ChEMBL document CHEMBL4304773, “Nitroimidazole-containing compounds and their antibacterial and antitubercular activities” (2019) are ED50 and MIC values, retold here.

For orientation: ED50 means the dose at which the effect has come halfway, by size or by number of responders. A higher ED50 goes with weaker potency. Broadly, the MIC is the least concentration at which growth counts as inhibited. A higher MIC goes with a need for much substance.

Values after ≈ are worked out from the molar mass of the structure shown.

In the test on Escherichia coli [1], `CCn1cc(C(=O)OC)c(=O)c2cc(F)c(N3CCN(CCn4c([N+](=O)[O-])cnc4C)CC3)cc21` came in with an ED50 of 3.5 to 13.2 mg/kg.

Consider `C=CCN1CCN(c2ccc3c4c(cccc24)C(=O)N(CC(O)Cn2c([N+](=O)[O-])cnc2C)C3=O)CC1` (configuration not stated), for which the MIC in the test on Escherichia coli [2], against Pseudomonas aeruginosa [3], against Enterococcus faecalis, with Staphylococcus aureus [4], in the test on Staphylococcus aureus [5] and against Staphylococcus aureus [6] was 13 to 1020 µM (≈ 6.56 to 515 µg/mL) each time. The MIC in the test with Pseudomonas aeruginosa [7], in the test on Acinetobacter baumannii, against Escherichia coli [8] and against Klebsiella pneumoniae was 13 to 1020 µM (≈ 6.56 to 515 µg/mL) in each case.

As for `Cc1nn(-c2ccccc2)c(Oc2ccc(F)cc2)c1/C=N/NC(=O)Cn1c([N+](=O)[O-])cnc1C`, the MIC against Staphylococcus aureus [9], in the test with Bacillus subtilis, against Escherichia coli [10] and in the test on Pseudomonas aeruginosa [11] was 3.12 to 50 µg/mL (≈ 6.53 to 105 µM) throughout.

Regarding `CCOC(=O)c1cn(CC)c2nc(N3CCN(CCn4c([N+](=O)[O-])cnc4C)CC3)c(F)cc2c1=O`, the ED50 in the test with Escherichia coli [1] was in the range of 3.5 to 13.2 mg/kg.

Regarding `Cc1ncc([N+](=O)[O-])n1CC(O)CN1C(=O)c2cccc3c(N4CCN(CC#N)CC4)ccc(c23)C1=O` (configuration not stated), the MIC with Escherichia coli [2], against Pseudomonas aeruginosa [3], in the test on Enterococcus faecalis, in the test with Staphylococcus aureus [4], in the test with Staphylococcus aureus [5] and against Staphylococcus aureus [6] was 13 to 1020 µM (≈ 6.55 to 514 µg/mL) in each case. Besides, the MIC against Pseudomonas aeruginosa [7], against Acinetobacter baumannii, in the test with Escherichia coli [8] and against Klebsiella pneumoniae was 13 to 1020 µM (≈ 6.55 to 514 µg/mL) each time.

As for `CCN1CCN(c2ccc3c4c(cccc24)C(=O)N(CC(O)Cn2c([N+](=O)[O-])cnc2C)C3=O)CC1` (configuration not stated), the minimal inhibitory concentration (MIC) against Escherichia coli [2], in the test on Pseudomonas aeruginosa [3], in the test on Enterococcus faecalis, in the test on Staphylococcus aureus [4], in the test with Staphylococcus aureus [5] and in the test on Staphylococcus aureus [6] was 13 to 1020 µM (≈ 6.4 to 502 µg/mL) each time. Further, the MIC against Pseudomonas aeruginosa [7], with Acinetobacter baumannii, against Escherichia coli [8] and with Klebsiella pneumoniae was 13 to 1020 µM (≈ 6.4 to 502 µg/mL) throughout.

For the molecule `Cc1ncc([N+](=O)[O-])n1CC(O)CN1C(=O)c2cccc3c(N4CCNCC4)ccc(c23)C1=O` (configuration not stated), the MIC in the test with Escherichia coli [2], with Pseudomonas aeruginosa [3], in the test with Enterococcus faecalis, with Staphylococcus aureus [4], against Staphylococcus aureus [5] and in the test on Staphylococcus aureus [6] was 69 to 1140 µM (≈ 32 to 530 µg/mL) each time. For the same molecule, the MIC in the test on Pseudomonas aeruginosa [7], against Acinetobacter baumannii, with Escherichia coli [8] and against Klebsiella pneumoniae was 69 to 1140 µM (≈ 32 to 530 µg/mL) throughout.

The molecule `CCn1cc(C(=O)O)c(=O)c2cc(F)c(N3CCN(CCn4c([N+](=O)[O-])cnc4C)CC3)cc21` had an ED50 with Escherichia coli [1] of 2.56 to 3.88 mg/kg.

As to `CCCCCCCCN1CCN(c2ccc3c4c(cccc24)C(=O)N(CC(O)Cn2c([N+](=O)[O-])cnc2C)C3=O)CC1` (configuration not stated), the MIC in the test on Escherichia coli [2], against Pseudomonas aeruginosa [3], against Enterococcus faecalis, with Staphylococcus aureus [4], against Staphylococcus aureus [5] and against Staphylococcus aureus [6] was 13 to 1020 µM (≈ 7.5 to 588 µg/mL) throughout. The MIC against Pseudomonas aeruginosa [7], in the test on Acinetobacter baumannii, in the test on Escherichia coli [8] and against Klebsiella pneumoniae was 13 to 1020 µM (≈ 7.5 to 588 µg/mL) in each case.

Regarding `CCCCCCN1CCN(c2ccc3c4c(cccc24)C(=O)N(CC(O)Cn2c([N+](=O)[O-])cnc2C)C3=O)CC1` (configuration not stated), the MIC in the test with Escherichia coli [2], against Pseudomonas aeruginosa [3], with Enterococcus faecalis, against Staphylococcus aureus [4], against Staphylococcus aureus [5] and with Staphylococcus aureus [6] was 13 to 1020 µM (≈ 7.13 to 560 µg/mL) in each case. The MIC in the test with Pseudomonas aeruginosa [7], against Acinetobacter baumannii, against Escherichia coli [8] and against Klebsiella pneumoniae was 13 to 1020 µM (≈ 7.13 to 560 µg/mL) in each case.

In the case of `Cc1ncc([N+](=O)[O-])n1CC(O)CN1C(=O)c2cccc3c(N4CCCCC4)ccc(c23)C1=O` (configuration not stated), the MIC against Escherichia coli [2], against Pseudomonas aeruginosa [3], against Enterococcus faecalis, in the test on Staphylococcus aureus [4], with Staphylococcus aureus [5] and with Staphylococcus aureus [6] was 69 to 1140 µM (≈ 32 to 528 µg/mL) each time. Moreover, the MIC against Pseudomonas aeruginosa [7], in the test with Acinetobacter baumannii, against Escherichia coli [8] and in the test with Klebsiella pneumoniae was 69 to 1140 µM (≈ 32 to 528 µg/mL) each time.

With `Cc1ccc(-n2nc(C)c(/C=N/NC(=O)Cn3c([N+](=O)[O-])cnc3C)c2Oc2ccc(Cl)cc2)cc1`, the MIC with Staphylococcus aureus [9], in the test on Bacillus subtilis, against Escherichia coli [10] and in the test on Pseudomonas aeruginosa [11] was 3.12 to 50 µg/mL (≈ 6.14 to 98.4 µM) in each case.

Regarding `Cc1ncc([N+](=O)[O-])n1CCN1CCN(c2cc3c(cc2F)c(=O)c(C(=O)O)cn3C2CC2)CC1`, the ED50 in the test on Escherichia coli [1] was in the range of 2.56 to 3.88 mg/kg.

With `CCCCCCCCCCCCN1CCN(c2ccc3c4c(cccc24)C(=O)N(CC(O)Cn2c([N+](=O)[O-])cnc2C)C3=O)CC1` (configuration not stated), the MIC against Escherichia coli [2], against Pseudomonas aeruginosa [3], with Enterococcus faecalis, against Staphylococcus aureus [4], in the test with Staphylococcus aureus [5] and against Staphylococcus aureus [6] was 13 to 1020 µM (≈ 8.23 to 645 µg/mL) in each case. Further, the MIC against Pseudomonas aeruginosa [7], in the test with Acinetobacter baumannii, in the test on Escherichia coli [8] and in the test on Klebsiella pneumoniae was 13 to 1020 µM (≈ 8.23 to 645 µg/mL) throughout.
